In patent publication US9370494B2, “Methods for treating hepatocellular carcinoma” (ABRAXIS BIOSCIENCE, LLC, priority 2010, dated 2016):

Assays:
HCC patients = conditions: British Journal of Cancer 1998; cited from earlier work
SK-HEP1/Luc+ xenograft = SK-HEP1/Luc+ xenograft model; conditions: 35 mmol/kg every two days for five times
Method: SK-HEP1 luciferase stable clone was prepared by transfecting SK-HEP1 cells with firefly luciferase expression vector and selected with 500 ug/ml Geneticin (Gibco-BRL) for 4 weeks. Individual colonies were screened for bioluminescence activity using the Xenogen IVIS® imager (Alameda, Calif., USA). Clones with stable luminescence expression were used for in-vivo studies.
Male BALB/c nude mice at 6-8 weeks old with an average body weight of about 20 g were anesthetized by intraperitoneal injection of ketamine hydrochloride (120 mg/kg) (Fort Dodge Animal Health, Fort Dodge, Iowa, USA) plus xylazine (6 mg/kg) (Phoenix Scientific, Inc., St. Joseph, Mo., USA). Anesthetized animals then received 5×10^6 SK-HEP1/Luc+ cells suspended in 200 μl serum free medium by subcutaneous injection below the dorsal flank. Drug treatments started on day 14 after tumor cells inoculation. […] All drugs were given every two days for five times, at a dose of 35 mmol/kg. See Desai N. et al., Clinical Cancer Research, 12:1317-24 (2006). Tumor growth was monitored twice weekly by in-vivo bioluminescent imaging and by external caliper measurements using the formula of [(Length×Width^2)/2] for 24 days. For in-vivo bioluminescent imaging, 150 mg/kg D-luciferin were given by intraperitoneal injection and ten minutes after luciferin injection, mice were anesthetized by isoflurane and tumor cell viability was measured by the Xenogen IVIS® imager.

HCC cells = conditions: US Patent App. No. 2008/0045584; cited from earlier work
[1] = system: Hep3B, SK-HEP1 and HKCl-9 HCC cell lines; assay: MTT cell viability assay in HCC cell lines; format: cell-based; conditions: Homo sapiens; 48 h; range over the 3 cell lines Hep3B, SK-HEP1, HKCl-9
Method: Human liver cancer cell lines Hep3B and SK-HEP1 acquired from ATCC were cultured in Dulbecco's modified Eagle medium with Glutamax-1 (Gibco-BRL, Grand Island, N.Y., USA) supplemented with 10% fetal bovine serum. HKCl-9 (as described in Chan K.Y. Y. et al., Modern Pathology 19:1546-54 (2006)) was cultured in AIMV medium (Gibco-BRL) supplemented with 1% L-Glutamine and 10% fetal bovine serum. All cells were cultured under a humidified atmosphere of 5% CO2 at 37° C.

Hep3B cells = assay: MTT cell viability assay after siRNA transfection (STMN1 knockdown); format: cell-based, human
Method: Cell viability was measured by MTT Assay. Cells grown in 96-well plates at density of 3000 cells per well were treated with drugs or siRNA transfection as indicated. […] The formazan formed was measured at 570 nm and cell viability is expressed as a percentage of maximum absorbance from 5 replicates in 3 independent experiments. The concentration of drug that inhibited cell survival by 50% (IC50) was determined from cell survival curves.
siRNA sequences included STMN1 siGENOME SMARTpool (si-STMN1) and siCONTROL Non-Targeting siRNA (si-mock). All siRNAs were chemically synthesized as double stranded RNA (Dharmacon) and introduced into cell lines by Lipofectamine 2000 (Invitrogen, Carlsbad, Calif., USA) according to manufacturer's instructions. Briefly, cells were incubated with 100 nM siRNA (si-STMN1 or si-mock). Six hours after transfection, medium was replaced by fresh growing medium. The expression of STMN1 was monitored by Western blot, which indicated a repressed expression for at least 3 days.

[2] = system: hepatitis B-related HCC patients; conditions: advanced stage patients; placebo 4.2 months; cited from earlier work

CC(=O)O[C@H]1C(=O)[C@@]2(C)[C@H]([C@H](OC(=O)c3ccccc3)[C@]3(O)C[C@H](OC(=O)[C@H](O)[C@@H](NC(=O)c4ccccc4)c4ccccc4)C(C)=C1C3(C)C)[C@]1(OC(C)=O)CO[C@@H]1C[C@@H]2O [Paclitaxel]
Anti-cancer effect in HCC patients (HCC patients): no significant anti-cancer effect | Toxicity (weight loss, deaths) (SK-HEP1/Luc+ xenograft): particularly severe

CC(=O)O[C@@]12CO[C@@H]1C[C@H](O)[C@@]1(C)C(=O)[C@H](O)C3=C(C)[C@@H](OC(=O)[C@H](O)[C@@H](NC(=O)OC(C)(C)C)c4ccccc4)C[C@@](O)([C@@H](OC(=O)c4ccccc4)[C@H]21)C3(C)C [Docetaxel]
Activity against HCC cells relative to paclitaxel (HCC cells): more active against HCC cells than paclitaxel | Toxicity (weight loss, deaths) (SK-HEP1/Luc+ xenograft): particularly severe

COc1cccc2c1C(=O)c1c(O)c3c(c(O)c1C2=O)C[C@@](O)(C(=O)CO)C[C@@H]3O[C@H]1C[C@H](N)[C@H](O)[C@H](C)O1 [Doxorubicin]
IC50 [1]: 106 to 456 nM | Fold more sensitive after STMN1 knockdown (si-STMN1 vs si-mock) (Hep3B cells): no effect | Toxicity (weight loss, deaths) (SK-HEP1/Luc+ xenograft): particularly severe

CNC(=O)c1cc(Oc2ccc(NC(=O)Nc3ccc(Cl)c(C(F)(F)F)c3)cc2)ccn1 [Sorafenib]
Median overall survival [2]: 6.5 months
